The target of assay [1] is T1, Androgen Receptor (Homo sapiens, UniProt P10275+P40337, T878A).
T1 construct: Compounds have been evaluated in this assay in LNCaP and/or VCaP cells utilizing similar protocols; endogenous in cells; host or cells: LNCaP cells
The assay can be described thus: Androgen Receptor ELISA assay (PathScan AR ELISA) in LNCaP cells: AR degradation, Dmax and DC50. The class given is cell-based. Conditions: for DC50: concentration that caused 50% Androgen Receptor degradation; for Dmax: highest percentage of Androgen Receptor degradation observed. For orientation: An ELISA detects its analyte on a solid surface through an enzyme-linked reagent.

The target of assay [2] is T2, Androgen Receptor (Homo sapiens, UniProt P10275).
T2 construct: endogenous in cells; host or cells: VCaP cells
T2 sequence (P10275 1-920): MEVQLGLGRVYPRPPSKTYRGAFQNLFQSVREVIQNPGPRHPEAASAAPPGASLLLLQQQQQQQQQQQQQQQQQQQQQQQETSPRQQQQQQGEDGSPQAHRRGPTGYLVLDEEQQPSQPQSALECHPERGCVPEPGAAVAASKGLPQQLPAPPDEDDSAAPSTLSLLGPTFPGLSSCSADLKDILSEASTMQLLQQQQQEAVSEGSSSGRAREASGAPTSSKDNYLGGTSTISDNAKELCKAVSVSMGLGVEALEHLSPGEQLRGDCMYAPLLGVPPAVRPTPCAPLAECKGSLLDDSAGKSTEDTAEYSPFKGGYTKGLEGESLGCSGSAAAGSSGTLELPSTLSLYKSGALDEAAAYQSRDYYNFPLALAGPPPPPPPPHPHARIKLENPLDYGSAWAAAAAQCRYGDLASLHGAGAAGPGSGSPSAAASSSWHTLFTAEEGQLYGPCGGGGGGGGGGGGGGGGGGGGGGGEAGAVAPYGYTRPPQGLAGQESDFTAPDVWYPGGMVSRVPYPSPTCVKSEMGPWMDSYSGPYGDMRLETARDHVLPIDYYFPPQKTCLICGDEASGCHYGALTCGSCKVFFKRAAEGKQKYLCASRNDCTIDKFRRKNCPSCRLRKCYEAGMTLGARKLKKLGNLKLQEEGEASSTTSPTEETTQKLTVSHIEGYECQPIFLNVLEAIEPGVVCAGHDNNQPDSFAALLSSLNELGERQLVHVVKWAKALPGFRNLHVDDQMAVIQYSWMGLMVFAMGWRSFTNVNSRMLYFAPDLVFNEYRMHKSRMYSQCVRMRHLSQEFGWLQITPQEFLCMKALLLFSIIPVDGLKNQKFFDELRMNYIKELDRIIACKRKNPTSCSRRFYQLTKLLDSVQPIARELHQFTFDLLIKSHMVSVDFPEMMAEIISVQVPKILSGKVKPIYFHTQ
Put plainly: Androgen Receptor ELISA assay (PathScan AR ELISA) in VCaP cells: AR degradation, Dmax and DC50. The class given is cell-based. Conditions: for Dmax: VCaP, read-out: VCaP Dmax (%); for DC50: read-out: VCaP DC50, concentration that caused 50% Androgen Receptor degradation, VCaP cells. The method, boiled down: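 After 24 h exposure of VCaP cells (charcoal-stripped serum, 0.1 nM R1881 agonist, 0.1% DMSO) to seven half-log compound concentrations, residual AR in lysates was measured by PathScan ELISA (TMB absorbance, 450 nm). Cells were plated at 30,000/well and grown at least 3 days beforehand.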

DC50 and Dmax data for five molecules are collected here from patent US11427548B2 (Arvinas Operations, Inc., priority 2015, dated 2022).

T1 sequence (P10275 whole entry T878A): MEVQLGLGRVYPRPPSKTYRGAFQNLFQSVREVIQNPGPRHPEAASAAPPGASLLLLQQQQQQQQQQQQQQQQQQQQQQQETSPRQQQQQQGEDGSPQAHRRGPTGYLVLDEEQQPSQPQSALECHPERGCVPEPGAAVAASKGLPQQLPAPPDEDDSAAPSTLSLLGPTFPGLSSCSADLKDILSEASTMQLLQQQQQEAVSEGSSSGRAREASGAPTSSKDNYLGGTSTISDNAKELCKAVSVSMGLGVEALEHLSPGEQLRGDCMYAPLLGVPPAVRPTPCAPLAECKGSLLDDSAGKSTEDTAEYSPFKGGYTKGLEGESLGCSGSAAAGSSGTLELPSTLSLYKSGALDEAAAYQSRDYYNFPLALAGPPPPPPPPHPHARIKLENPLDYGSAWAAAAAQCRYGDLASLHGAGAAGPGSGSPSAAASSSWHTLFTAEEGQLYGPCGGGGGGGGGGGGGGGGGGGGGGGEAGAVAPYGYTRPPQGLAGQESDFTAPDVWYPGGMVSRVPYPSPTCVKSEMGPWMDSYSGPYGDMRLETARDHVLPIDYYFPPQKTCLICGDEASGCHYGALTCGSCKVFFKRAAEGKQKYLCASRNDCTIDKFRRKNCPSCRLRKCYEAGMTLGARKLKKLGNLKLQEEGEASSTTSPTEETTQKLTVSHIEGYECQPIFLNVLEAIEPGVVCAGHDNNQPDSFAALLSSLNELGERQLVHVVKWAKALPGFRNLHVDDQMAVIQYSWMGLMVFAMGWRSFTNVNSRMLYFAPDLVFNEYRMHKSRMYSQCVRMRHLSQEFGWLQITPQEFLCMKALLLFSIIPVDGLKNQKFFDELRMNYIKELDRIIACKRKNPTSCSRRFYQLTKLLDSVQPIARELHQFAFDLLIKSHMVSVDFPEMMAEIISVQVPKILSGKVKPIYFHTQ
T1 sequence (P40337 whole entry): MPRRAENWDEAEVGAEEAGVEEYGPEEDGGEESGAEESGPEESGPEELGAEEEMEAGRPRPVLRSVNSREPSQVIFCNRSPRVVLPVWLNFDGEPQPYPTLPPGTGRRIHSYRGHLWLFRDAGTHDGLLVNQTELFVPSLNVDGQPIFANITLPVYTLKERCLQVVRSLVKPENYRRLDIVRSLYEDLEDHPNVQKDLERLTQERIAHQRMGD
T1 sequence (Q15369 whole entry partner): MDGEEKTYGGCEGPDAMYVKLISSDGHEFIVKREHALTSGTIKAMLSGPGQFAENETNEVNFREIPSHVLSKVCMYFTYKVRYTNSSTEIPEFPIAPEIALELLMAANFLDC
T1 sequence (Q15370 whole entry partner): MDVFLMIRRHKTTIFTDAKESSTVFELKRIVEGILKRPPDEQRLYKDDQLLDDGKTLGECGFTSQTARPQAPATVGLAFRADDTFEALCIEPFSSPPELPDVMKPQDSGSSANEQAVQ

For `Cc1ncsc1-c1ccc([C@H](C)NC(=O)[C@@H]2C[C@@H](O)CN2C(=O)[C@@H](NC(=O)COCCCOCCCCCOc2ccc(N3C(=S)N(c4ccc(C#N)c(C(F)(F)F)c4)C(=O)C3(C)C)cc2F)C(C)(C)C)cc1` [Example 10, (2S,4R)-1-[(2S)-2-[2-(3-{[5-(4-{3-[4-cyano-3-(trifluoromethyl)phenyl]-5,5-dimethyl-4-oxo-2-sulfanylideneimidazolidin-1-yl}-2-fluorophenoxy)pentyl]oxy}propoxy)acetamido]-3,3-dimethylbutanoyl]-4-hydroxy-N-[(1S)-1-[4-(4-methyl-1,3-thiazol-5-yl)phenyl]ethyl]pyrrolidine-2-carboxamide], the DC50 on Androgen Receptor [1] and at Androgen Receptor [2] was under 50 nM throughout. In addition, the Dmax on Androgen Receptor [1] was over 71%; at Androgen Receptor [2], 51 to 70%.
At Androgen Receptor [1], `Cc1ncsc1-c1ccc([C@H](C)NC(=O)[C@@H]2C[C@@H](O)CN2C(=O)[C@@H](NC(=O)COCCCOCCCCCOc2c(F)cc(N3C(=S)N(c4ccc(C#N)c(C(F)(F)F)c4)C(=O)C3(C)C)cc2F)C(C)(C)C)cc1` [Example 11, (2S,4R)-1-[(2S)-2-[2-(3-{[5-(4-{3-[4-cyano-3-(trifluoromethyl)phenyl]-5,5-dimethyl-4-oxo-2-sulfanylideneimidazolidin-1-yl}-2,6-difluorophenoxy)pentyl]oxy}propoxy)acetamido]-3,3-dimethylbutanoyl]-4-hydroxy-N-[(1S)-1-[4-(4-methyl-1,3-thiazol-5-yl)phenyl]ethyl]pyrrolidine-2-carboxamide] registered a DC50 of under 50 nM and a Dmax of over 71%. At Androgen Receptor [2], the Dmax fell in the range of 51 to 70% and the DC50 is under 50 nM.
On Androgen Receptor [1], `Cc1ncsc1-c1ccc(CNC(=O)[C@@H]2C[C@@H](O)CN2C(=O)[C@@H](NC(=O)COCCCOCCC(C)(C)CCOc2ccc(N3C(=S)N(c4ccc(C#N)c(C(F)(F)F)c4)C(=O)C3(C)C)cc2)C(C)(C)C)cc1` [Example 12, (2S,4R)-1-[(2S)-2-[2-(3-{[5-(4-{3-[4-cyano-3-(trifluoromethyl)phenyl]-5,5-dimethyl-4-oxo-2-sulfanylideneimidazolidin-1-yl}phenoxy)-3,3-dimethylpentyl]oxy}propoxy)acetamido]-3,3-dimethylbutanoyl]-4-hydroxy-N-{[4-(4-methyl-1,3-thiazol-5-yl)phenyl]methyl}pyrrolidine-2-carboxamide] had a DC50 of 51 to 500 nM and a Dmax of over 71%. On Androgen Receptor [2], the greatest degradation seen (Dmax) was in the range of 26 to 50% and the DC50 was under 50 nM.
At Androgen Receptor [1], `Cc1ncsc1-c1ccc(CNC(=O)[C@@H]2C[C@@H](O)CN2C(=O)[C@@H](NC(=O)CO[C@H](C)[C@@H](C)OCCOCCOc2ccc(N3C(=S)N(c4ccc(C#N)c(C(F)(F)F)c4)C(=O)C3(C)C)cc2)C(C)(C)C)cc1` [Example 22, (2S,4R)-1-[(2S)-2-(2-{[(2R,3R)-3-{2-[2-(4-{3-[4-cyano-3-(trifluoromethyl)phenyl]-5,5-dimethyl-4-oxo-2-sulfanylideneimidazolidin-1-yl}phenoxy)ethoxy]ethoxy}butan-2-yl]oxy}acetamido)-3,3-dimethylbutanoyl]-4-hydroxy-N-{[4-(4-methyl-1,3-thiazol-5-yl)phenyl]methyl}pyrrolidine-2-carboxamide] displayed a DC50 of under 50 nM and a Dmax of 51 to 70%. On Androgen Receptor [2], the Dmax is 26 to 50% and the DC50 lay in the range of 51 to 500 nM.
On the same counts, the results for `Cc1ncsc1-c1ccc([C@H](C)NC(=O)[C@@H]2C[C@@H](O)CN2C(=O)[C@@H](NC(=O)COCCCCOCCCCOc2ccc(N3C(=S)N(c4ccc(C#N)c(C(F)(F)F)c4)C(=O)C3(C)C)cc2F)C(C)(C)C)cc1` [Example 25, (2S,4R)-1-[(2S)-2-(2-{4-[4-(4-{3-[4-cyano-3-(trifluoromethyl)phenyl]-5,5-dimethyl-4-oxo-2-sulfanylideneimidazolidin-1-yl}-2-fluorophenoxy)butoxy]butoxy}acetamido)-3,3-dimethylbutanoyl]-4-hydroxy-N-[(lS)-1-[4-(4-methyl-1,3-thiazol-5-yl)phenyl]ethyl]pyrrolidine-2-carboxamide] are under 50 nM, over 71%, 51 to 70% and under 50 nM.

As a reminder, the DC50 is the concentration giving 50% degradation. As usually defined, the Dmax is the greatest extent of degradation seen.
